Experimental data published in PubChem BioAssay (NCI).
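Exposure lasted 48 hours, with cells grown in 96-well plates and compounds tested at five concentrations. Definition used: TGI = concentration required for complete inhibition of growth.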

Columns and labels:
Assay in all cases: growth of human tumour cells (NCI), 48 h
[1] = test system: 786-0 renal
[2] = test system: A498 renal
[3] = test system: A549 NSCLC
[4] = test system: ACHN renal
[5] = test system: BT-549 breast
[6] = test system: CAKI-1 renal
[7] = test system: CCRF-CEM leukemia
[8] = test system: COLO 205 colon
[9] = test system: DU-145 prostate
[10] = test system: EKVX NSCLC
[11] = test system: HCC-2998 colon
[12] = test system: HCT-116 colon
[13] = test system: HCT-15 colon
[14] = test system: HL-60(TB) leukemia
[15] = test system: HOP-62 NSCLC
[16] = test system: HOP-92 NSCLC
[17] = test system: HS 578T breast
[18] = test system: HT29 colon
[19] = test system: IGROV1 ovarian
[20] = test system: K-562 leukemia
[21] = test system: KM12 colon
[22] = test system: LOX IMVI melanoma
[23] = test system: M14 melanoma
[24] = test system: MCF7 breast
[25] = test system: MDA-MB-231 breast
[26] = test system: MDA-MB-435
[27] = test system: MDA-N
[28] = test system: MOLT-4 leukemia
[29] = test system: NCI-H226 lung
[30] = test system: NCI-H23 lung
[31] = test system: NCI-H460 lung
[32] = test system: NCI-H522 lung
[33] = test system: NCI/ADR-RES ovarian
[34] = test system: OVCAR-3 ovarian
[35] = test system: OVCAR-4 ovarian
[36] = test system: OVCAR-5 ovarian
[37] = test system: OVCAR-8 ovarian
[38] = test system: PC-3 prostate
[39] = test system: RPMI-8226 leukemia
[40] = test system: RXF 393 renal
[41] = test system: SF-268 CNS
[42] = test system: SF-295 CNS
[43] = test system: SF-539 CNS
[44] = test system: SK-MEL-2 melanoma
[45] = test system: SK-MEL-28 melanoma
[46] = test system: SK-MEL-5 melanoma
[47] = test system: SK-OV-3 ovarian
[48] = test system: SN12C renal
[49] = test system: SNB-19 CNS
[50] = test system: SW-620 colon
[51] = test system: T-47D breast
[52] = test system: TK-10 renal
[53] = test system: U251 CNS
[54] = test system: UACC-257 melanoma
[55] = test system: UACC-62 melanoma
[56] = test system: UO-31 renal
[57] = test system: MALME-3M melanoma
[58] = test system: SNB-75 CNS

CC1=C(C(=O)NNC(=O)c2ccccc2)CC(C(=O)NNC(=O)c2ccccc2)=C(C)N1
TGI [1]: > 100 µM
TGI [2]: > 100 µM
TGI [3]: > 100 µM
TGI [4]: > 100 µM
TGI [5]: > 100 µM
TGI [6]: > 100 µM
TGI [7]: > 100 µM
TGI [8]: > 100 µM
TGI [9]: > 100 µM
TGI [10]: > 100 µM
TGI [11]: > 100 µM
TGI [12]: > 100 µM
TGI [13]: > 100 µM
TGI [14]: > 100 µM
TGI [15]: > 100 µM
TGI [16]: > 100 µM
TGI [17]: > 100 µM
TGI [18]: > 100 µM
TGI [19]: > 100 µM
TGI [20]: > 100 µM
TGI [21]: > 100 µM
TGI [22]: > 100 µM
TGI [23]: > 100 µM
TGI [24]: > 100 µM
TGI [25]: > 100 µM
TGI [26]: > 100 µM
TGI [27]: > 100 µM
TGI [28]: > 100 µM
TGI [29]: > 100 µM
TGI [30]: > 100 µM
TGI [31]: > 100 µM
TGI [32]: > 100 µM
TGI [33]: > 100 µM
TGI [34]: > 100 µM
TGI [35]: > 100 µM
TGI [36]: > 100 µM
TGI [37]: > 100 µM
TGI [38]: > 100 µM
TGI [39]: > 100 µM
TGI [40]: > 100 µM
TGI [41]: > 100 µM
TGI [42]: > 100 µM
TGI [43]: > 100 µM
TGI [44]: > 100 µM
TGI [45]: > 100 µM
TGI [46]: > 100 µM
TGI [47]: > 100 µM
TGI [48]: > 100 µM
TGI [49]: > 100 µM
TGI [50]: > 100 µM
TGI [51]: > 100 µM
TGI [52]: > 100 µM
TGI [53]: > 100 µM
TGI [54]: > 100 µM
TGI [55]: > 100 µM
TGI [56]: > 100 µM

COc1ccc2nc3cccc([N+](=O)[O-])c3c(NCCN(C)C)c2c1
TGI [1]: 0.348 µM
TGI [2]: 0.347 µM
TGI [3]: 0.279 µM
TGI [4]: 0.357 µM
TGI [5]: 0.184 µM
TGI [6]: 0.746 µM
TGI [8]: 0.107 µM
TGI [9]: 0.0601 µM
TGI [10]: 0.397 µM
TGI [11]: 0.188 µM
TGI [12]: 0.115 µM
TGI [13]: 0.263 µM
TGI [15]: 0.323 µM
TGI [16]: 0.192 µM
TGI [17]: 0.518 µM
TGI [18]: 0.441 µM
TGI [19]: 0.39 µM
TGI [21]: 0.449 µM
TGI [22]: 0.232 µM
TGI [23]: 0.218 µM
TGI [57]: 0.213 µM
TGI [24]: 0.314 µM
TGI [25]: 0.357 µM
TGI [26]: 0.208 µM
TGI [27]: 0.262 µM
TGI [28]: 0.491 µM
TGI [29]: 0.456 µM
TGI [30]: 0.362 µM
TGI [31]: 0.0672 µM
TGI [32]: 0.0487 µM
TGI [33]: 0.373 µM
TGI [34]: 0.312 µM
TGI [35]: 0.271 µM
TGI [36]: 0.437 µM
TGI [37]: 0.251 µM
TGI [38]: 0.268 µM
TGI [39]: 0.393 µM
TGI [40]: 0.23 µM
TGI [41]: 0.546 µM
TGI [42]: 1 µM
TGI [43]: 0.297 µM
TGI [44]: 0.272 µM
TGI [45]: 0.31 µM
TGI [46]: 0.219 µM
TGI [47]: 0.781 µM
TGI [48]: 0.327 µM
TGI [49]: 0.829 µM
TGI [58]: 0.335 µM
TGI [50]: 0.756 µM
TGI [51]: 0.408 µM
TGI [52]: 0.659 µM
TGI [53]: 0.6 µM
TGI [54]: 0.384 µM
TGI [56]: 0.413 µM

CC1=CCCC(C)(O)C2CC(CCC3(C)OC3CC1)C(C)C(=O)O2 (stereo not given)
TGI [1]: > 100 µM
TGI [2]: > 100 µM
TGI [3]: > 100 µM
TGI [4]: > 100 µM
TGI [5]: > 100 µM
TGI [6]: > 100 µM
TGI [7]: > 100 µM
TGI [8]: > 100 µM
TGI [9]: > 100 µM
TGI [10]: > 100 µM
TGI [11]: > 100 µM
TGI [12]: > 100 µM
TGI [13]: > 100 µM
TGI [14]: > 100 µM
TGI [17]: > 100 µM
TGI [18]: > 100 µM
TGI [19]: > 100 µM
TGI [20]: > 100 µM
TGI [21]: > 100 µM
TGI [22]: > 100 µM
TGI [23]: > 100 µM
TGI [57]: > 100 µM
TGI [24]: > 100 µM
TGI [25]: > 100 µM
TGI [26]: > 100 µM
TGI [27]: > 100 µM
TGI [28]: > 100 µM
TGI [29]: > 100 µM
TGI [30]: > 100 µM
TGI [31]: > 100 µM
TGI [32]: > 100 µM
TGI [33]: > 100 µM
TGI [34]: > 100 µM
TGI [35]: > 100 µM
TGI [36]: > 100 µM
TGI [37]: > 100 µM
TGI [38]: > 100 µM
TGI [39]: > 100 µM
TGI [41]: > 100 µM
TGI [42]: > 100 µM
TGI [43]: > 100 µM
TGI [44]: > 100 µM
TGI [45]: > 100 µM
TGI [46]: > 100 µM
TGI [47]: > 100 µM
TGI [48]: > 100 µM
TGI [49]: > 100 µM
TGI [58]: > 100 µM
TGI [50]: > 100 µM
TGI [51]: > 100 µM
TGI [52]: > 100 µM
TGI [53]: > 100 µM
TGI [54]: > 100 µM
TGI [55]: > 100 µM
TGI [56]: > 100 µM
